Measurements published in ChEMBL document CHEMBL2203055, “From α4β2 Nicotinic Ligands to the Discovery of σ1 Receptor Ligands: Pharmacophore Analysis and Rational Design” (ACS Med Chem Lett, 2012).

What was measured:
[1] = target: Sigma non-opioid intracellular receptor 1 (Rattus norvegicus, UniProt Q9R0C9); assay: Displacement of [3H]pentazocine from sigma 1 receptor in rat brain membrane after 2.5 hrs by microbeta scintillation counting analysis; type: cell membranes
[2] = target: D(3) dopamine receptor (Homo sapiens) (UniProt P35462); assay: Displacement of [3H]N-methylspiperone from D3 receptor at 10 uM after 1.5 hrs by microbeta scintillation counting analysis
[3] = target: 5-hydroxytryptamine receptor 2B (Homo sapiens, UniProt P41595); assay: Displacement of [3H]LSD from human recombinant 5-HT2B receptor after 1.5 hrs by microbeta scintillation counting analysis
[4] = target: Alpha-1A adrenergic receptor (Homo sapiens) (UniProt P35348); assay: Displacement of [3H]prazosin from alpha 1A adrenergic receptor at 10 uM after 1 hr by microbeta scintillation counting analysis
[5] = target: Neuronal acetylcholine receptor; alpha3/beta4 (Homo sapiens) (UniProt P30926+P32297); assay: Displacement of [3H]epibatidine from alpha3beta4 nAChR at 10 uM after 4 hrs by liquid scintillation counting analysis; type: protein-complex assay
[6] = Selectivity ratio of Ki for human recombinant DAT to Ki for sigma 1 receptor in rat brain membrane; type: cell membranes
Histamine H2 receptor = Histamine H2 receptor (Homo sapiens, UniProt P25021); assay: Displacement of [3H]tiotidine from human recombinant histamine H2 receptor after 1.5 hrs by microbeta scintillation counting analysis
[7] = target: Muscarinic acetylcholine receptor M4 (Homo sapiens) (UniProt P08173); assay: Displacement of [3H]QNB from human recombinant muscarinic M4 receptor at 10 uM after 1.5 hrs by microbeta scintillation counting analysis
[8] = target: D(2) dopamine receptor (Homo sapiens) (UniProt P14416); assay: Displacement of [3H]N-methylspiperone from human recombinant D2 receptor at 10 uM after 1.5 hrs by microbeta scintillation counting analysis
[9] = target: 5-hydroxytryptamine receptor 1D (Homo sapiens) (UniProt P28221); assay: Displacement of [3H]GR125743 from human recombinant 5-HT1D receptor at 10 uM after 1.5 hrs by microbeta scintillation counting analysis
[10] = target: Muscarinic acetylcholine receptor M5 (Homo sapiens) (UniProt P08912); assay: Displacement of [3H]QNB from human recombinant muscarinic M5 receptor at 10 uM after 1.5 hrs by microbeta scintillation counting analysis
[11] = target: Neuronal acetylcholine receptor; alpha2/beta4 (Homo sapiens) (UniProt P30926+Q15822); assay: Displacement of [3H]epibatidine from alpha2beta4 nAChR at 10 uM after 4 hrs by liquid scintillation counting analysis; type: protein-complex assay
[12] = target: Neuronal acetylcholine receptor; alpha4/beta4 (Homo sapiens) (UniProt P30926+P43681); assay: Displacement of [3H]epibatidine from alpha4beta4 nAChR at 10 uM after 4 hrs by liquid scintillation counting analysis; type: protein-complex assay
[13] = target: Neuronal acetylcholine receptor; alpha3/beta2 (Homo sapiens) (UniProt P17787+P32297); assay: Displacement of [3H]epibatidine from alpha3beta2 nAChR at 10 uM after 4 hrs by liquid scintillation counting analysis; type: protein-complex assay
Histamine H1 receptor = Histamine H1 receptor (Homo sapiens, UniProt P35367); assay: Displacement of [3H]pyrilamine from human recombinant histamine H1 receptor after 1.5 hrs by microbeta scintillation counting analysis
[14] = target: Mu-type opioid receptor (Homo sapiens) (UniProt P35372); assay: Displacement of [3H]DAMGO from mu-opioid receptor at 10 uM after 1.5 hrs by microbeta scintillation counting analysis
[15] = target: D(4) dopamine receptor (Homo sapiens) (UniProt P21917); assay: Displacement of [3H]N-methylspiperone from D4 receptor at 10 uM after 1.5 hrs by microbeta scintillation counting analysis
[16] = target: Neuronal acetylcholine receptor; alpha2/beta2 (Homo sapiens) (UniProt P17787+Q15822); assay: Displacement of [3H]epibatidine from alpha2beta2 nAChR at 10 uM after 4 hrs by liquid scintillation counting analysis; type: protein-complex assay
[17] = target: Neuronal acetylcholine receptor; alpha4/beta2 (Rattus norvegicus) (UniProt P09483+P12390); assay: Displacement of [3H]epibatidine from alpha4beta2* nAChR in rat forebrain at 10 uM after 4 hrs by liquid scintillation counting analysis
[18] = target: Beta-2 adrenergic receptor (Homo sapiens, UniProt P07550); assay: Displacement of [125I]Iodopindolol from beta 2 adrenergic receptor after 1.5 hrs by microbeta scintillation counting analysis
[19] = Selectivity ratio of Ki for human recombinant NET to Ki for sigma 1 receptor in rat brain membrane; type: cell membranes
[20] = target: Alpha-1B adrenergic receptor (Homo sapiens) (UniProt P35368); assay: Displacement of [3H]prazosin from alpha 1B adrenergic receptor at 10 uM after 1 hr by microbeta scintillation counting analysis
[21] = target: 5-hydroxytryptamine receptor 1E (Homo sapiens) (UniProt P28566); assay: Displacement of [3H]5-HT from human recombinant 5-HT1E receptor at 10 uM after 1.5 hrs by microbeta scintillation counting analysis
[22] = target: Neuronal acetylcholine receptor; alpha4/beta2 (Homo sapiens) (UniProt P17787+P43681); assay: Displacement of [3H]epibatidine from alpha4beta2 nAChR at 10 uM after 4 hrs by liquid scintillation counting analysis; type: protein-complex assay
[23] = target: 5-hydroxytryptamine receptor 1A (Homo sapiens) (UniProt P08908); assay: Displacement of [3H]-8-OH-DPAT from human recombinant 5-HT1A receptor at 10 uM after 1.5 hrs by microbeta scintillation counting analysis
[24] = target: 5-hydroxytryptamine receptor 1B (Homo sapiens) (UniProt P28222); assay: Displacement of [3H]GR125743 from human recombinant 5-HT1B receptor at 10 uM after 1.5 hrs by microbeta scintillation counting analysis
[25] = target: 5-hydroxytryptamine receptor 6 (Homo sapiens, UniProt P50406); assay: Displacement of [3H]LSD from human recombinant 5-HT6 receptor after 1.5 hrs by microbeta scintillation counting analysis

Chain of Muscarinic acetylcholine receptor M5 (Homo sapiens) (P08912 whole entry): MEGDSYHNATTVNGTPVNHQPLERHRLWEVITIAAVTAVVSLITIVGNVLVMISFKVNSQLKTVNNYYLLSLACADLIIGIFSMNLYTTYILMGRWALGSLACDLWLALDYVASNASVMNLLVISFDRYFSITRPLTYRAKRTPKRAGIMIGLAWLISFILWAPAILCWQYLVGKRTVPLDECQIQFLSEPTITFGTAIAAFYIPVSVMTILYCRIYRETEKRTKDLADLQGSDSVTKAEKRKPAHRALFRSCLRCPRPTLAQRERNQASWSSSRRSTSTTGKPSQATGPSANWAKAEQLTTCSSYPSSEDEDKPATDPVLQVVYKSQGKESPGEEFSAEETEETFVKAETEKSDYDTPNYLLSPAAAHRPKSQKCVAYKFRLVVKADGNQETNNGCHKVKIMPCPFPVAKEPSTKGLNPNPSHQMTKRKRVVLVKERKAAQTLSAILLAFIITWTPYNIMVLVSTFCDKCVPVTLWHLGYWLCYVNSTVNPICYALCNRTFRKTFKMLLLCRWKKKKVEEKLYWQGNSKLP
Chain of 5-hydroxytryptamine receptor 1D (Homo sapiens) (P28221 whole entry): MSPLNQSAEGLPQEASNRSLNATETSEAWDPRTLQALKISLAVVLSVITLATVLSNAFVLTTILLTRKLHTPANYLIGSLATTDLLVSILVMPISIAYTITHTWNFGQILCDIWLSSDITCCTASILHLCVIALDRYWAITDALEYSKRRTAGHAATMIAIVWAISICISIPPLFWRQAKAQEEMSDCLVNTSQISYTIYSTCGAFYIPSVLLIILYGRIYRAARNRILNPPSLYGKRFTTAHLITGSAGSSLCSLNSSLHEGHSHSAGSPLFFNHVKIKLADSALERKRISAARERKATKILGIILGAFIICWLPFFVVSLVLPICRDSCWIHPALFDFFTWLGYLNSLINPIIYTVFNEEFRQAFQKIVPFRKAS
Chain of Sigma non-opioid intracellular receptor 1 (Q9R0C9 whole entry): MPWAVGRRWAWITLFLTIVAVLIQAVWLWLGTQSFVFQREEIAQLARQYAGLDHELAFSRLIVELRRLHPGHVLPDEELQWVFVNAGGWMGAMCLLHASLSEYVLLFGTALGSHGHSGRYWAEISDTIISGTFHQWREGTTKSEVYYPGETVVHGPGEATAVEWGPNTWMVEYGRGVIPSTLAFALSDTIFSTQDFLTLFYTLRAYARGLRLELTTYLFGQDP
Chain of 5-hydroxytryptamine receptor 1B (Homo sapiens) (P28222 whole entry): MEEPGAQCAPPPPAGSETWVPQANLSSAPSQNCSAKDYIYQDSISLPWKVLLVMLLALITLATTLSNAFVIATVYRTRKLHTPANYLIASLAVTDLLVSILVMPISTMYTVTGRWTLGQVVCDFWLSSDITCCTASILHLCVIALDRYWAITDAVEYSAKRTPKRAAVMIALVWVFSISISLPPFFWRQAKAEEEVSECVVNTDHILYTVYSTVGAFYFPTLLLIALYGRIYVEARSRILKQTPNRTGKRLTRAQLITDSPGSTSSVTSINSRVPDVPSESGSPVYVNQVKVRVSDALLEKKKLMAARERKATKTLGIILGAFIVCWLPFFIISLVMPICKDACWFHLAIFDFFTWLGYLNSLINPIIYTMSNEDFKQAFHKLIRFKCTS
Chain of 5-hydroxytryptamine receptor 1E (Homo sapiens) (P28566 whole entry): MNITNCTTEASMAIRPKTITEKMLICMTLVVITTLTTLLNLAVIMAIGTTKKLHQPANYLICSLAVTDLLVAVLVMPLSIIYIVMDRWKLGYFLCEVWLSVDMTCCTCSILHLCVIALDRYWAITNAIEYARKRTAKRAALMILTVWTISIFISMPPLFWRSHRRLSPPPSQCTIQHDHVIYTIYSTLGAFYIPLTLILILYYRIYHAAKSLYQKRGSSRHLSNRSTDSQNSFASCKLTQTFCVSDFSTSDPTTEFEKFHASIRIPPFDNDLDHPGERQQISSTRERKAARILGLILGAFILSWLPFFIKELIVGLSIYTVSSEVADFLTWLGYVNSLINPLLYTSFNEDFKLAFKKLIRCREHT
Chain of D(4) dopamine receptor (Homo sapiens) (P21917 whole entry): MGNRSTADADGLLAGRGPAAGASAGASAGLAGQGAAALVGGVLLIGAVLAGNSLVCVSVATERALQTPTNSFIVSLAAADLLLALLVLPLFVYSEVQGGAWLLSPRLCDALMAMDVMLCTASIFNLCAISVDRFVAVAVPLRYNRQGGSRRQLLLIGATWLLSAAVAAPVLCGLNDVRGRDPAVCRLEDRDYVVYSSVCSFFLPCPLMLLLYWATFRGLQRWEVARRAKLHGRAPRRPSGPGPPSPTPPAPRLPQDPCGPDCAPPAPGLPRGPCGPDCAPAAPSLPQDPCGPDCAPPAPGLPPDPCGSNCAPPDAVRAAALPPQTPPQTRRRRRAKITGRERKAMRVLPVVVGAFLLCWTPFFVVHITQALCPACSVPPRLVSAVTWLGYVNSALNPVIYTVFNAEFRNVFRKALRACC
Chain of Mu-type opioid receptor (Homo sapiens) (P35372 whole entry): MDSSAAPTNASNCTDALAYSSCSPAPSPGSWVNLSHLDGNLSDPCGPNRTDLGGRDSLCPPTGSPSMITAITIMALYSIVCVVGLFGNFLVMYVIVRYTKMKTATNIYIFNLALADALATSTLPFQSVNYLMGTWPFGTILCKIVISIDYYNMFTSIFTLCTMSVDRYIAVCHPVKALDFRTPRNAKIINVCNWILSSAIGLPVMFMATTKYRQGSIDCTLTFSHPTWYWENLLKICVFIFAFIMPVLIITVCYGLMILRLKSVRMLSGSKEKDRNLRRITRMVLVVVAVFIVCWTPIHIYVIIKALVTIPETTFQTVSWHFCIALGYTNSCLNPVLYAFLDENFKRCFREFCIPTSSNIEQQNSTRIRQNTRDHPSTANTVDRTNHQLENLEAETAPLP
Chain of Alpha-1A adrenergic receptor (Homo sapiens) (P35348 whole entry): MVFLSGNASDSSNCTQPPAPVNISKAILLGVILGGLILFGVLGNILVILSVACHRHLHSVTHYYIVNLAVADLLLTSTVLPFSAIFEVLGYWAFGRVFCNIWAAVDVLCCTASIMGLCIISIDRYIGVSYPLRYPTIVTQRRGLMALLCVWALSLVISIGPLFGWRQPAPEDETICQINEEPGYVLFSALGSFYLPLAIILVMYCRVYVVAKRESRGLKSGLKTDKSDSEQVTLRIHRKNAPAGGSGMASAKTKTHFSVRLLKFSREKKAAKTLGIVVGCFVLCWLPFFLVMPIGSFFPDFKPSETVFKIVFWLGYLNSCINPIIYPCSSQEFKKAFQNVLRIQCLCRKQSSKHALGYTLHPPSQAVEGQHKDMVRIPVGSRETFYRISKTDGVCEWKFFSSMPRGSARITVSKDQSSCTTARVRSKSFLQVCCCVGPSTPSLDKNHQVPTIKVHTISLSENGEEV
Chain of Alpha-1B adrenergic receptor (Homo sapiens) (P35368 whole entry): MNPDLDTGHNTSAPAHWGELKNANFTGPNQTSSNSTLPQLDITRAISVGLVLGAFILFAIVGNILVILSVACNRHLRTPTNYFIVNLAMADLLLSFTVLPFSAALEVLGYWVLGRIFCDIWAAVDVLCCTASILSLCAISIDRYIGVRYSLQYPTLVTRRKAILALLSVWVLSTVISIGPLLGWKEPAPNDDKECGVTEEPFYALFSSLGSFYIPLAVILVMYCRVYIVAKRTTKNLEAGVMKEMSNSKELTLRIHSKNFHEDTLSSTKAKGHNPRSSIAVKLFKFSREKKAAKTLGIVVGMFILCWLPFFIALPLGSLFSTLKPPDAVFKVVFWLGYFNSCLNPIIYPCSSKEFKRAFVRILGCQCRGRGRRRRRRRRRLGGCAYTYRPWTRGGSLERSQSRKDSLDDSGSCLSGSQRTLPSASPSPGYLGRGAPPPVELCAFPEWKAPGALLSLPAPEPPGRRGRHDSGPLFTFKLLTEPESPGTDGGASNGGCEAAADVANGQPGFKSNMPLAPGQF
Chain of D(2) dopamine receptor (Homo sapiens) (P14416 whole entry): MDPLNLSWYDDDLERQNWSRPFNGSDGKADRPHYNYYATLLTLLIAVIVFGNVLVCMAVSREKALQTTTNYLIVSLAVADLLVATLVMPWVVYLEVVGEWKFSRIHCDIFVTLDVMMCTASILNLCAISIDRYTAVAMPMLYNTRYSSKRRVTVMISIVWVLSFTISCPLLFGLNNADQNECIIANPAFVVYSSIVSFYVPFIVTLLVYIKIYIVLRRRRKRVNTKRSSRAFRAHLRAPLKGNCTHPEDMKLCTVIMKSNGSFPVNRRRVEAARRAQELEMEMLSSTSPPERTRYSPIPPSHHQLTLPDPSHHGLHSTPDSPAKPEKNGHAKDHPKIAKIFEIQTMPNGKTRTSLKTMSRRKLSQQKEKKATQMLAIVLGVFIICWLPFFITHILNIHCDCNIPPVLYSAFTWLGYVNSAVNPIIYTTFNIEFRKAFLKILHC
Chain of Muscarinic acetylcholine receptor M4 (Homo sapiens) (P08173 whole entry): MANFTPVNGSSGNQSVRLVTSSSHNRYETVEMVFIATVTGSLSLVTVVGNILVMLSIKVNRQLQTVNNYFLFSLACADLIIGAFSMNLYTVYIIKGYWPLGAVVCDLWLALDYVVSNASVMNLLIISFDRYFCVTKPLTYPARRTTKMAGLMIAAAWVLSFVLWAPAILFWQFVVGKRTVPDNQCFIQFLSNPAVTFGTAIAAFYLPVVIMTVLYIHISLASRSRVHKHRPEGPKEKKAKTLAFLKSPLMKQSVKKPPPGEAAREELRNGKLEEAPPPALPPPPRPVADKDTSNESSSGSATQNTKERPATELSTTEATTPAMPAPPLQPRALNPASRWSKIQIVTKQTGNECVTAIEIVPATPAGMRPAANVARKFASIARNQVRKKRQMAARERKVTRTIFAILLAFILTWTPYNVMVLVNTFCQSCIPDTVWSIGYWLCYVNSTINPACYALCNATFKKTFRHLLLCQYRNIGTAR

c1ccc(OCc2cc(OC[C@@H]3CCCN3)no2)cc1
Ki [1]: 0.0041 µM | Efficacy [2]: 35.9% | Ki [3]: 5.1 µM | Efficacy [4]: 21% | Activity [5]: < 50% | Ratio Ki [6]: 90 | Ki (Histamine H2 receptor): 5.16 µM | Efficacy [7]: 33.6% | Efficacy [8]: 23.9% | Efficacy [9]: 15.7% | Efficacy [10]: 36.6% | Activity [11]: < 50% | Activity [12]: < 50% | Activity [13]: < 50% | Ki (Histamine H1 receptor): > 10 µM | Efficacy [14]: 29.8% | Efficacy [15]: 32% | Activity [16]: < 50% | Activity [17]: < 50% | Ki [18]: > 10 µM | Ratio Ki [19]: 50 | Efficacy [20]: 27.8% | Efficacy [21]: -4.7% | Activity [22]: < 50% | Efficacy [23]: 34.4% | Efficacy [24]: -1.2%

c1ccc(OCc2cc(OC[C@@H]3CCN3)no2)cc1
Ki [1]: 0.033 µM | Efficacy [2]: 12.9% | Efficacy [4]: 17.5% | Efficacy [7]: 35.1% | Efficacy [8]: 22.9% | Efficacy [9]: 14% | Ki [25]: > 10 µM | Efficacy [10]: 44.5% | Efficacy [14]: 38.1% | Efficacy [15]: 30% | Efficacy [20]: 18.1% | Efficacy [21]: 5.9% | Efficacy [23]: 26.3% | Efficacy [24]: 2.3%
